Measured values taken from PubChem BioAssay (NCI).
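Briefly, cells in 96-well plates were exposed to five compound concentrations for 48 h, and endpoints were estimated by linear interpolation. GI50: concentration for 50% inhibition of growth. TGI: concentration producing complete growth inhibition.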 Where a SMILES comes first, the peptide text is derived from it. [ ]: non-standard residue; d: D form. The star is where a group is joined. Cbz = O=C(OCc1ccccc1)*; Aib = CC(C)(N)C(=O)O; OBn = c1ccc(CO*)cc1

Tests used:
Test in all cases: DTP human tumour cell line panel, 48 h
A549 NSCLC = test system: A549 NSCLC
K-562 leukemia = test system: K-562 leukemia
HS 578T breast = test system: HS 578T breast
NCI-H23 lung = test system: NCI-H23 lung
SW-620 colon = test system: SW-620 colon
SNB-75 CNS = test system: SNB-75 CNS
SR leukemia = test system: SR leukemia
MOLT-4 leukemia = test system: MOLT-4 leukemia
T-47D breast = test system: T-47D breast
SK-OV-3 ovarian = test system: SK-OV-3 ovarian

Row | Structure (SMILES) | TGI (A549 NSCLC) | TGI (K-562 leukemia) | TGI (HS 578T breast) | TGI (NCI-H23 lung) | TGI (SW-620 colon) | TGI (SNB-75 CNS) | TGI (SR leukemia) | TGI (MOLT-4 leukemia) | TGI (T-47D breast) | TGI (SK-OV-3 ovarian) | GI50 (SNB-75 CNS)
1 | CN1CC[C@]2(c3cccc(O)c3)CC(=O)/C(=C/c3ccccc3)[C@@H]1C2 | 13.2 µM | 4.01 µM | 13 µM | 36.8 µM | 6.93 µM | 5.27 µM | 8.68 µM | 5.59 µM | – | – | –
2 | CC(C)(CO)CNc1nc(N)nc(Cl)c1/C=N/O | > 100 µM | > 100 µM | > 100 µM | > 100 µM | > 100 µM | > 100 µM | > 100 µM | > 100 µM | 38.9 µM | – | –
3 | CC(NC(=O)C(C)(C)NC(=O)C(CC(=O)OCc1ccccc1)NC(=O)OCc1ccccc1)C(N)=O (configuration not stated) (Cbz-Asp(OBn)-[Aib]-Ala-NH2; configuration not given here) | > 100 µM | > 100 µM | > 100 µM | > 100 µM | > 100 µM | – | > 100 µM | > 100 µM | > 100 µM | > 100 µM | –
4 | CCOC(=O)c1c2cccccc-2nc1Nc1cccc2c(C)ccnc12 | > 10 µM | > 10 µM | > 10 µM | > 10 µM | > 10 µM | – | > 10 µM | > 10 µM | > 10 µM | > 10 µM | –
5 | CC(C)(C)N=C(N)NC#N | > 100 µM | > 100 µM | > 100 µM | > 100 µM | > 100 µM | > 100 µM | > 100 µM | > 100 µM | – | > 100 µM | –
6 | O=C1C(=Nc2ccc(Nc3ccccc3)cc2)Oc2ccccc21 | 10.7 µM | 11.4 µM | – | 3.93 µM | 4.67 µM | 8.52 µM | 4.71 µM | 6.39 µM | 9.57 µM | 23 µM | –
7 | CO/N=C(/C(=O)OC)c1ccccc1COc1ccccc1C(F)(F)F | > 100 µM | > 100 µM | > 100 µM | > 100 µM | – | – | 79.2 µM | > 100 µM | > 100 µM | 91.8 µM | –
8 | Nc1ncnc2c1ccn2C/C=C/CO | > 100 µM | > 100 µM | > 100 µM | > 100 µM | > 100 µM | > 100 µM | – | > 100 µM | > 100 µM | > 100 µM | –
9 | O=C(NCCCl)O/N=C/c1cccnc1 | > 100 µM | > 100 µM | – | > 100 µM | > 100 µM | > 100 µM | – | > 100 µM | – | > 100 µM | > 100 µM
10 | CN(C)CCNC(=O)Cc1ccccc1Nc1c(Cl)cccc1Cl | 36 µM | 37.5 µM | – | 33.4 µM | 34.5 µM | 27.4 µM | 37.7 µM | 36.7 µM | – | 33.4 µM | –
11 | N#CC(c1ccccc1)N(CCOCCOCCN(C(=O)c1ccccc1)C(C#N)c1ccccc1)C(=O)c1ccccc1 (configuration not stated) | > 100 µM | > 100 µM | > 100 µM | > 100 µM | > 100 µM | > 100 µM | – | > 100 µM | 67.4 µM | > 100 µM | –
12 | Cn1ncc2c(NCc3ccccc3)ncnc21 | > 100 µM | > 100 µM | – | > 100 µM | > 100 µM | > 100 µM | > 100 µM | > 100 µM | > 100 µM | > 100 µM | –
13 | O[C@H]1[C@H](O)[C@@H](O)CN2CC[C@H](O)[C@H]12 | > 100 µM | > 100 µM | – | > 100 µM | > 100 µM | > 100 µM | – | > 100 µM | – | > 100 µM | –
14 | [N-]=[N+]=CC(=O)OC(CCl)CCl | – | > 100 µM | – | > 100 µM | > 100 µM | – | > 100 µM | > 100 µM | – | > 100 µM | –
15 | CC1(C)C=CC(=O)C(O)C(C)(C)C1=O (configuration not stated) | > 100 µM | > 100 µM | > 100 µM | > 100 µM | > 100 µM | > 100 µM | – | 69.7 µM | > 100 µM | > 100 µM | –
16 | O=C(NN1C(=O)CS(=O)(=O)C1c1ccc(C(F)(F)F)cc1)c1ccncc1 (configuration not stated) | > 100 µM | – | – | > 100 µM | > 100 µM | > 100 µM | > 100 µM | > 100 µM | – | > 100 µM | –
17 | CSc1nc2c(c(N(C)C)n1)C(O)n1c(nc3ccccc31)S2 (configuration not stated) | > 100 µM | > 100 µM | > 70.8 µM | > 100 µM | > 100 µM | 74.2 µM | – | > 100 µM | > 85.3 µM | 43.6 µM | –
18 | CC(C(=O)COCc1ccccc1)P1(=O)OC(C)(C)CN1C(C)(C)C (configuration not stated) | > 100 µM | – | > 100 µM | > 100 µM | > 100 µM | > 100 µM | – | > 100 µM | > 100 µM | > 100 µM | –
19 | C=C(C)[C@H]1C2=CC(C(=O)OC)=C(C[C@H](C(=C)C)[C@@H](O)[C@@H](O)C3=C[C@H]1OC3=O)O2 | > 100 µM | > 100 µM | > 100 µM | > 100 µM | > 100 µM | > 100 µM | – | > 100 µM | > 100 µM | > 100 µM | –
20 | Cc1nc2ccccc2c(-n2cccn2)c1CCn1cccn1 | > 100 µM | > 100 µM | > 100 µM | > 100 µM | > 100 µM | – | > 100 µM | > 100 µM | > 100 µM | > 100 µM | –
21 | CC1=C(C#N)c2nc3ccccc3n2C(=O)C1(C)CCO (configuration not stated) | > 100 µM | > 100 µM | > 100 µM | > 100 µM | > 100 µM | > 100 µM | > 100 µM | – | – | > 100 µM | –
22 | CC(C)C1=CC23CCC4C(C)(C(=O)O)CCCC4(C)C2CC1C1C(=O)N(CCCCCCN2C(=O)C4C5CC6C7(C)CCCC(C)(C(=O)O)C7CCC6(C=C5C(C)C)C4C2=O)C(=O)C13 (configuration not stated) | 45.3 µM | > 100 µM | 34.9 µM | 14.9 µM | 33.4 µM | – | 34.1 µM | 30.1 µM | 41.5 µM | – | –
23 | CSc1csc(-c2ccc(-c3ccc(-c4cc(SC)cs4)s3)s2)c1 | > 100 µM | > 100 µM | > 100 µM | > 100 µM | > 100 µM | > 100 µM | > 100 µM | > 100 µM | – | > 100 µM | –
24 | N#Cc1sc2c(c1OC(=O)c1ccc(C(F)(F)F)cc1)c(=O)n(-c1ccccc1)c(=S)n2-c1ccccc1 | > 100 µM | > 100 µM | 91.7 µM | > 100 µM | > 100 µM | 85.7 µM | – | 52.7 µM | > 100 µM | > 100 µM | –
